# Reference: US20240269227A1, “CALCIUM-SENSING RECEPTOR AGONIST COMPOSITION AND APPLICATION THEREOF” (Beijing Tuo Jie Biopharmaceutical Co. Ltd., priority 2021, published 2024)
# Where a SMILES comes first, the peptide text is derived from it. [ ]: non-standard residue; d: D form. The star is where a group is joined. Cys(free,S-linked) = N[C@@H](CS*)C(=O)O; dAbu = CC[C@@H](N)C(=O)O
# Columns and labels:
# normal rats = test: In vivo efficacy in a normal rat model after a single dose; set-up: species or system rat (Sprague Dawley); conditions: 3 mg/kg intravenous
# Method: SPF normal adult rats (Sprague Dawley, or SD) with weight of 250-350 g were fed with normal diet in an animal room for 7 days. Rats were randomized into groups of 6, half female and half male, and numbered. The day before the start of the experiment, 540 μL of blood was collected from each rat, and the plasma parathyroid hormone levels and the serum calcium ion concentration were measured as control values before administration. […] The plasma parathyroid hormone levels were measured using the Rat Intact PTH ELISA Kit (Quidel—Immunotopics, Cat. #: 60-2500; ELISA: Enzyme-linked immunosorbent assay) according to the kit instructions. […] The absorbance at 450 nm in each well was detected within 10 min after the addition of the ELISA terminating solution, while the absorbance at 620 nm was subtracted as background. A mixture of horseradish peroxidase ELISA substrate 150 μL and ELISA terminating solution 100 μL was used as the blank control in the absorbance detection. A standard curve according to the absorbance of the reference standard was plotted, and the actual plasma parathyroid hormone concentration was calculated according to the absorbance of other samples and the standard curve. […]
# [1] = tested on: rat peritoneal mast cells; test: In vitro histamine release in rat peritoneal mast cells; type: cell-based; conditions: final concentration 10 μM
# Method: To evaluate the in vitro histamine release levels induced by some of the test example compounds, rat peritoneal mast cells were collected by lavaging rat peritoneum with a lavage buffer (cold HBSS+25 mM HEPES containing heparin 5 U/mL, pH 7.4). After collection, the cells were centrifuged, and the lavage buffer was discarded. The cells were resuspended and washed twice with a stimulation buffer (HBSS+25 mM HEPES+1 mM CaCl2), pH 7.4). The cells were plated at a density of 10^5 cell/well (200 μL/well) and incubated at 37° C. for 15 min with positive control compound 48/80 (final concentration: 4 μg/mL), test example compound (final concentration: 10 μM) or vehicle control. The cells were centrifuged, and cell supernatant was collected and tested for histamine concentration according to LDN Histamine ELISA kit (BAE-1000) instructions.
# human red blood cells = test: Hemolytic effect on human red blood cells in vitro; conditions: compound of formula (I) at 100 μg/mL; 37° C. for 1 h; absorbance at 540 nm; FIG. 1
Compound,serum calcium ion levels (normal rats; FIG. 3),"plasma parathyroid hormone levels (normal rats; within 4 h, FIG. 2)",histamine release levels in rat peritoneal mast cells in vitro relative to the etelcalcetide [1],"Relative fold of histamine release in vitro ([1]; 37° C. 15 min, relative to PBS buffer)",hemolytic effect on red blood cells (human red blood cells)
"CC[C@@H](NC(=O)[C@@H](CCCNC(=N)N)NC(=O)[C@@H](CCCNC(=N)N)NC(=O)[C@@H](CSSC[C@H](N)C(=O)O)NC(C)=O)C(=O)N[C@H](CCCNC(=N)N)C(=O)N[C@H](C)C(=O)N[C@H](CCCNC(=N)N)C(N)=O [Compound of formula (I), Ac-c(C)-r-r-(D-Abu)-r-a-r-NH2] (Ac-[dC](Cys(free,S-linked))[dR][dR][dAbu][dR][dA][dR]-NH2)",correspondingly reduced,completely reduced,greatly reduced,0.97,–
polyethylene glycol octyl phenyl ether,–,–,–,–,significant hemolytic effect
